Data: ChEMBL document CHEMBL1149982, “Synthesis and in vitro profile of 7-substituted quinoline chromanols as novel, non-acidic LTB4 antagonists” (Bioorg Med Chem Lett, 1995)

molecular target: Leukotriene B4 receptor 1 (Homo sapiens, UniProt Q15722); assay: In vitro inhibitory activity against human neutrophil leukotriene B4 (LTB4)
Sequence (Q15722 whole entry): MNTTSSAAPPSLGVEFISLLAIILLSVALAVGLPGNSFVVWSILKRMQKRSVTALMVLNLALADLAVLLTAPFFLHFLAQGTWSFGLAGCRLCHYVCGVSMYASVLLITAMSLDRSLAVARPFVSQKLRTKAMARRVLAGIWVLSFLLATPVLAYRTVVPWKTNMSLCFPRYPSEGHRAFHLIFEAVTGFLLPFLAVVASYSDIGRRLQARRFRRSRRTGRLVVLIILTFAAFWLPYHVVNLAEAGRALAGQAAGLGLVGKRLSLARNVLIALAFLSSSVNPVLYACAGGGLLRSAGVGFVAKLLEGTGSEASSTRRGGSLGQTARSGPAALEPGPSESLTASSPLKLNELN

SMILES	Ki [µM]
CC(Oc1ccc2c(c1)OC[C@@H](Cc1ccccn1)[C@@H]2O)c1ccc2ccccc2n1 (stereo partly specified)	0.24
C[C@H](Oc1ccc2c(c1)OC[C@@H](Cc1cccnc1)[C@@H]2O)c1ccc2ccccc2n1	1.9
CC(Oc1ccc2c(c1)OC[C@H](Cc1ccccn1)[C@@H]2O)c1ccc2ccccc2n1 (stereo partly specified)	3.3
C[C@@H](Oc1ccc2c(c1)OC[C@@H](Cc1cccnc1)[C@@H]2O)c1ccc2ccccc2n1	0.33
O[C@@H]1c2cc(OCc3ccc4ccccc4n3)ccc2OC[C@@H]1Cc1cccnc1	38
CC(Oc1ccc2c(c1)OC[C@H](Cc1cccnc1)[C@@H]2O)c1ccc2ccccc2n1 (stereo partly specified)	5.2
O[C@@H]1c2cc(OCc3ccc4ccccc4n3)ccc2OC[C@H]1Cc1cccnc1	16

molecular target: T1, Cysteinyl leukotriene receptor 1 (Cavia porcellus, UniProt Q2NNR5); assay: In vitro inhibitory activity against human leukotriene D4 (LTD4)
T1 sequence (Q2NNR5 whole entry): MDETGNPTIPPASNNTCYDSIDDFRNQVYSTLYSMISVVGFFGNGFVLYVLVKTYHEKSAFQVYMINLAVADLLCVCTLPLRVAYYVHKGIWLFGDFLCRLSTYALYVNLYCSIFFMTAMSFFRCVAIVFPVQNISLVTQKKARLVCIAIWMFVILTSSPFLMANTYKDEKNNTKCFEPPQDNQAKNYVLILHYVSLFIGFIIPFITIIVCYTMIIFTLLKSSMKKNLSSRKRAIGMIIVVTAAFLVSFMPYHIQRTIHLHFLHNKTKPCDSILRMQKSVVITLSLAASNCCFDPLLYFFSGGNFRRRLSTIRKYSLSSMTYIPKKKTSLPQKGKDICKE

SMILES	Ki [µM]
O[C@@H]1c2cc(OCc3ccc4ccccc4n3)ccc2OC[C@@H]1Cc1cccnc1	1.6

molecular target: T1, Cysteinyl leukotriene receptor 1; assay: In vitro inhibitory activity against leukotriene D4 receptor

SMILES	Ki [µM]
CC(Oc1ccc2c(c1)OC[C@@H](Cc1ccccn1)[C@@H]2O)c1ccc2ccccc2n1 (stereo partly specified)	> 50
C[C@H](Oc1ccc2c(c1)OC[C@@H](Cc1cccnc1)[C@@H]2O)c1ccc2ccccc2n1	> 50
O[C@@H]1c2ccc(OCc3ccc4ccccc4n3)cc2OC[C@@H]1Cc1cccnc1	1.3
O[C@@H]1c2ccc(OCc3ccc4ccccc4n3)cc2OC[C@H]1Cc1cccnc1	4.1
CC(Oc1ccc2c(c1)OC[C@H](Cc1ccccn1)[C@@H]2O)c1ccc2ccccc2n1 (stereo partly specified)	> 50
C[C@@H](Oc1ccc2c(c1)OC[C@@H](Cc1cccnc1)[C@@H]2O)c1ccc2ccccc2n1	> 50
CC(Oc1ccc2c(c1)OC[C@H](Cc1cccnc1)[C@@H]2O)c1ccc2ccccc2n1 (stereo partly specified)	> 50
O[C@@H]1c2cc(OCc3ccc4ccccc4n3)ccc2OC[C@H]1Cc1cccnc1	1
